The target of this experiment is T1, Mucosa-associated lymphoid tissue lymphoma translocation protein 1 (Homo sapiens, UniProt Q9UDY8).
T1 sequence (Q9UDY8 whole entry): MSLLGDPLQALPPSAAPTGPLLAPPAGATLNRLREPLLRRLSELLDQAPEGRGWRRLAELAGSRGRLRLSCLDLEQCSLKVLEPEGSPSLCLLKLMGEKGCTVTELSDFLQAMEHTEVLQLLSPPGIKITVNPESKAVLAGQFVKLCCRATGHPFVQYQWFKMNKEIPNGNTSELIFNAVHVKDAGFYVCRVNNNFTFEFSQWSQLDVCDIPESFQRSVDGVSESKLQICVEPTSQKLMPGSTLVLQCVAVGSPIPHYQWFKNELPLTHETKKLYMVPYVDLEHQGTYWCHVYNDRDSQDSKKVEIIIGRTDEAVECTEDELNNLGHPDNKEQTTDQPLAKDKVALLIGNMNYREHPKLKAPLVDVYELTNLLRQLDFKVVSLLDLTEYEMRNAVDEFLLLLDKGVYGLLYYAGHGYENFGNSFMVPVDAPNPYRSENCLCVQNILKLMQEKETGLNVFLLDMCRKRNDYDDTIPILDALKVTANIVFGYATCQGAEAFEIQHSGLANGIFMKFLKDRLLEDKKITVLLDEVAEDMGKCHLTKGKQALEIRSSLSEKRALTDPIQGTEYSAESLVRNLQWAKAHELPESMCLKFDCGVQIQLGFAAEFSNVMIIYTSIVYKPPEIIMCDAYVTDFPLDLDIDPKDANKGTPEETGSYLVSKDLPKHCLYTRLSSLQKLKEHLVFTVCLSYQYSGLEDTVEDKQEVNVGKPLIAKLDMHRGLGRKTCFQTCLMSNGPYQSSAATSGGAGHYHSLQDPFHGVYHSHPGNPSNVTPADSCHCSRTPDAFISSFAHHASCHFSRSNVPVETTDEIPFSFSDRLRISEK
As to the kind of experiment: MALT-1 Inhibition Assay. On the procedure:
MALT-1 paracaspase activity was measured using the fluorogenic substrate Ac-LRSR-Rh110-DP (purchased from Biosantan GmbH). Proteolytic cleavage of the peptide—rhodamine conjugate results in an increase of rhodamine fluorescence which is inhibited by test compounds. Test compounds were diluted in DMSO in a series of 10 semi-log step doses, 15 nL of each compound dose were dispensed in 384 well polypropylene plates (HiBase non-binding, Greiner Bio-One cat #784900). All other assay components were diluted to appropriate working concentrations in assay buffer composed of: 200 mM Tris-HCl (pH 7.5; Sigma-Aldrich cat #T2663-1L), 0.1 mM EGTA (Sigma-Aldrich cat #E3889-10G), 0.05% CHAPS—Sigma-Aldrich cat #C9426-1G), 1 mM TCEP (Sigma-Aldrich cat #646547-10×1 mL), 0.8 M sodium citrate (Sigma-Aldrich cat #S1804-500G). Recombinant human MALT-1 (amino acids 340-824, accession NP_006776.1) was added to compound doses and equilibrated for 40 minutes at rt. The reaction was initiated by addition of substrate. Final concentrations of MALT-1 and substrate were 3 nM and 10 μM respectively. Reactions were incubated in the dark for 60 minutes at 25° C. Fluorescence was measured in a PHERAstar FSX plate reader (BMG LABTECH) with optical setup for excitation at 485 nm and emission at 520 nm, focal height of 11.8 mm, 20 flashes, gain 300. Percent inhibition values were calculated from relative fluorescence units at different doses and fitted to a 4-parameter logistic curve to determine IC50 values.

Usually IC50 stands for the concentration needed to halve the response being measured. Read a high IC50 as weaker potency. Consider `CN(C(=O)C1CCS(=O)(=O)CC1)[C@@H](c1ccc(N2CC[C@@]3(CCOC3)c3c2cnc2cc(Cl)nn32)cc1)C(F)(F)F` [US20250051327, Reference CPD0073762], for which the IC50 turned out to be 53 nM.

Turning to `COc1ccc2ncc(Nc3ccc([C@H](N(C)C(=O)[C@@H]4CCC(=O)N4)C(F)(F)F)cc3)c([C@H](C)OC)c2n1` (relative stereo) [US20250051327, Reference CPD0075580], the IC50 stood at 47 nM.

Take `CO[C@@H](C)c1c(Nc2ccc([C@H](N(C)C(=O)CN3CCN(C)CC3)C(F)(F)F)cc2)cnn2cc(Cl)nc12` [US20250051327, Reference CPD0084933]: 137 nM corresponded to half-maximal inhibition (IC50).

`COc1ccc2ncc(Nc3ccc([C@H](N(C)C(=O)[C@@H]4CNC(=O)C4)C(F)(F)F)cc3)c([C@H]3CCOC3)c2n1` (relative stereo) [US20250051327, Reference CPD0084144] had a half-inhibitory concentration (IC50) of 76 nM. This IC50 lies about 1.8-fold lower than the previous one.

`COc1ccc2ncc(Nc3ccc([C@H](N(C)C(=O)[C@H]4CC[S@+]([O-])CC4)C(F)(F)F)cc3)c([C@H](C)OC)c2n1` (relative stereo) [US20250051327, Reference CPD0072936] showed an IC50 of 68 nM.

`COC[C@@]1(C)CCN(c2ccc([C@H](N(C)C(=O)C3CCS(=O)(=O)CC3)C(F)(F)F)cc2)c2cnc3cc(Cl)nn3c21` [US20250051327, Reference CPD0073139]: 112 nM corresponded to half-maximal inhibition (IC50).

`CO[C@@H](C)c1c(Nc2ccc([C@H](N(C)C(=O)[C@@H]3CCC(=O)N3)C(F)(F)F)cc2)cnn2cc(Cl)nc12` [US20250051327, Reference CPD0082470] displayed an IC50 of 45 nM.

Take `CO[C@@H](C)c1c(Nc2ccc([C@H](N(C)C(=O)[C@@H]3CCN(C(=O)CO)C3)C(F)(F)F)cc2)cnn2cc(Cl)nc12` (relative stereo) [US20250051327, Reference CPD0084140]: the IC50 is 45 nM.

`COc1ccc2ncc(Nc3ccc([C@H](N(C)C(=O)C4CCS(=O)(=O)CC4)C(F)(F)F)cc3)c([C@H]3CCCO3)c2n1` (relative stereo) [US20250051327, Reference CPD0074043] had an IC50 of 107 nM.

`COc1ccc2ncc(Nc3ccc([C@H](N(C)C(=O)C4CCS(=O)(=O)CC4)C(F)(F)F)cc3)c([C@@H]3CCCO3)c2n1` (relative stereo) [US20250051327, Reference CPD0074044] showed an IC50 of 218 nM.

In turn, `CO[C@@H](C)c1c(Nc2ccc([C@H](N(C)C(=O)[C@H]3CCC(=O)NC3)C(F)(F)F)cc2)cnn2cc(Cl)nc12` (relative stereo) [US20250051327, Reference CPD0082471] registered an IC50 of 37 nM.

For the compound `CN(C(=O)[C@H]1CC[S@](=N)(=O)CC1)[C@@H](c1ccc(N2CC(C)(C)Cc3c2cnc2cc(Cl)nn32)cc1)C(F)(F)F` [US20250051327, Reference CPD0073497], the IC50 was determined as 52 nM.

With `CN(C(=O)C1CCS(=O)(=O)CC1)[C@@H](c1ccc(N2CCCc3c2cnc2cc(Cl)nn32)nc1)C(F)(F)F` [US20250051327, Reference CPD0019212], the midpoint of inhibition, the IC50, lay at 313 nM.

In the case of `COc1ccc2ncc(Nc3ccc([C@H](N(C)C(=O)[C@@H]4CNC(=O)C4)C(F)(F)F)cc3)c([C@@H]3CCOC3)c2n1` [US20250051327, Reference CPD0084142], the IC50 turned out to be 41 nM.

For the compound `COc1ccc2ncc(Nc3ccc([C@H](N(C)C(=O)C4CCS(=O)(=O)CC4)C(F)(F)F)cc3)c([C@@H](C)OC)c2n1` (relative stereo) [US20250051327, Reference CPD0019171], it took 196 nM to reach half-maximal inhibition (IC50).

In turn, `C[C@H]1CCN(c2ccc([C@H](N(C)C(=O)[C@H]3CC[S@](=N)(=O)CC3)C(F)(F)F)cc2)c2cnc3cc(F)nn3c21` (relative stereo) [US20250051327, Reference CPD0074553] registered an IC50 of 39 nM.

Take `CN(C(=O)[C@H]1C[C@@H]([S@@+](C)(=N)[O-])C1)[C@@H](c1ccc(N2CCCc3c2cnc2cc(Cl)nn32)cc1)C(F)(F)F` [US20250051327, Reference CPD0073223]: the IC50 amounted to 57 nM.

Compound `COc1ccc2ncc(Nc3ccc([C@H](N(C)C(=O)C4CCN(C(C)=O)CC4)C(F)(F)F)cc3)c([C@H](C)OC)c2n1` (relative stereo) [US20250051327, Reference CPD0074559] displayed an IC50 of 153 nM. This IC50 is about 2.7-fold higher than that of the compound before.

`COc1ccc2ccc(Nc3ccc([C@H](N(C)C(=O)C4CCS(=O)(=O)CC4)C(F)(F)F)cc3)cc2n1` [US20250051327, Reference CPD0019078] came in with an IC50 of 182 nM.

Compound `O=C(CC1CS(=O)(=O)C1)N[C@@H](c1ccc(N2CCCc3c2cnc2cc(Cl)nn32)cc1)C(F)(F)F` [US20250051327, Reference CPD0073535] gave a 50% inhibitory concentration (IC50) of 403 nM.

`COc1ccc2ncc(Nc3ccc([C@H](N(C)C(=O)[C@H]4CC[S@@+]([O-])CC4)C(F)(F)F)cc3)c([C@H](C)OC)c2n1` (relative stereo) [US20250051327, Reference CPD0072935] gave an IC50 of 75 nM.

Take `COc1ccc2ncc(Nc3ccc([C@H](N(C)C(=O)[C@@H]4CNC(=O)C4)C(F)(F)F)cc3)c([C@H](C)OC)c2n1` (relative stereo) [US20250051327, Reference CPD0074550]: it took 81 nM to reach half-maximal inhibition (IC50).

`CN(C(=O)C1CCS(=O)(=O)CC1)[C@@H](c1ccc(N2CCC3(CC3)c3c2cnc2cc(Cl)nn32)cc1)C(F)(F)F` [US20250051327, Reference CPD0019590] gave an IC50 of 64 nM.

Compound `COc1ccc2ncc(Nc3ccc([C@H](N(C)C(=O)C4CCS(=O)(=O)CC4)C(F)(F)F)cc3)c([C@@H]3CCOC3)c2n1` [US20250051327, Reference CPD0074040] yielded a half-maximal inhibitory concentration (IC50) of 83 nM.

`COc1ccc2ncc(Nc3ccc([C@H](N(C)C(=O)C4CCS(=O)(=O)CC4)C(F)(F)F)cn3)c([C@@H](C)OC)c2n1` (relative stereo) [US20250051327, Reference CPD0019006]: the IC50 was found to be 139 nM.

`CN(C(=O)[C@H]1CS(=O)(=O)CC12COC2)[C@@H](c1ccc(N2CCCc3c2cnc2cc(Cl)nn32)cc1)C(F)(F)F` [US20250051327, Reference CPD0073975] returned an IC50 of 112 nM.

In turn, `CN(C(=O)[C@H]1CCN(C(=O)CC#N)C1)[C@@H](c1ccc(N2CCCc3c2cnc2cc(Cl)nn32)cc1)C(F)(F)F` [US20250051327, Reference CPD0073191] displayed an IC50 of 96 nM. This IC50 and that of the compound before are within 1.5-fold of each other.

In turn, `CN(C(=O)[C@@H]1CCN(C(=O)CC#N)C1)[C@@H](c1ccc(N2CCCc3c2cnc2cc(Cl)nn32)cc1)C(F)(F)F` [US20250051327, Reference CPD0073190] registered an IC50 of 114 nM.

`C[C@H]1CCN(c2ccc([C@H](N(C)C(=O)[C@H]3CC[S@@](=N)(=O)CC3)C(F)(F)F)cc2)c2cnc3cc(F)nn3c21` (relative stereo) [US20250051327, Reference CPD0074554] displayed an IC50 of 44 nM.

For the compound `COC[C@]1(C)CCN(c2ccc([C@H](N(C)C(=O)C3CCS(=O)(=O)CC3)C(F)(F)F)cc2)c2cnc3cc(Cl)nn3c21` [US20250051327, Reference CPD0073140], half-maximal inhibition (IC50) required 92 nM. Compared with the last compound, the IC50 is about 2.1-fold higher.

`COc1ccc2ncc(Nc3ccc([C@H](N(C)C(=O)C4CCS(=O)(=O)CC4)C(F)(F)F)cn3)c(C(C)OC)c2n1` (some centres undefined) [US20250051327, Reference CPD0019007] came in with an IC50 of 242 nM. Against the preceding compound, the IC50 is about 2.6-fold higher.

For the compound `COc1ccc2ncc(Nc3ccc([C@H](N(C)C(=O)[C@H]4CNC(=O)C4)C(F)(F)F)cc3)c([C@H](C)OC)c2n1` (relative stereo) [US20250051327, Reference CPD0074562], inhibition was half-maximal at 79 nM (IC50).

Take `CN(C(=O)[C@H]1CC[S@@](=N)(=O)CC1)[C@@H](c1ccc(N2CC(C)(C)Cc3c2cnc2cc(Cl)nn32)cc1)C(F)(F)F` [US20250051327, Reference CPD0073498]: the IC50 came out at 53 nM.

As for `COc1ccc2ncc(Nc3ccc([C@H](N(C)C(=O)[C@H]4CNC(=O)C4)C(F)(F)F)cc3)c([C@H]3CCOC3)c2n1` (relative stereo) [US20250051327, Reference CPD0084143], the IC50 was found to be 72 nM.
